# Laboratory results: US11919886B2, “4,9-dioxo-4,9-dihydronaphtho[2,3-B]furan-3-carboxamide derivatives and uses thereof for treating proliferative diseases and infectious diseases” (Academia Sinica, priority 2016, dated 2024)
# Like-named read-outs stand apart in the source and are kept apart here.
# How the values were obtained:
# H1975 cells [1] = assay: BrdU incorporation (DNA replication) by flow cytometry; type: cell-based, human; details: H1975, treated 12, 24 or 48 h
# Protocol: Panel (A): A chart showing DNA replication in Compound 1-treated H1975 cells was inhibited. DNA histograms (BrdU incorporation vs. DNA content) of DMSO or compound 1-treated H1975 cells are shown at 12 to 48 hours. The H1975 cells were BrdU-pulsed (BD Pharmingen™ BrdU Flow Kit Staining) and analyzed by flow cytometry. Panel (B): A chart showing compound 1 decreased the replication fork number. The replication forks were analyzed by immunofluorescence staining with anti-MCM2 antibodies (see row labeled “MCM2” and “Merge with DAPI”) and DAPI (see row labeled “Merge with DAPI”). The quantification was made by counting signals obtained with the anti-MCM2 antibody using Image J software. (n=5 cells per group; original magnification, ×1000). Panel (C): A chart showing compound 1-treated H1975 cells have a prolonged S phase. A double thymidine block was performed, and the data were collected at the indicated time points.
# To evaluate the effects on DNA replication of Compound 1, the levels of BrdU (5′-bromo′-2′-deoxyuridine) incorporation were examined. Exemplary results are shown in Panel (A) of FIG. 2. […] The content of BrdU was assessed using fluorescent antibodies. […] The samples were analyzed in a FACS caliber flow cytometer (Becton Dickinson, Sweden) for dot plot histogram analysis (BrdU incorporation vs. DNA content).
# H1975 cells [2] = assay: Double thymidine block, S phase progression by flow cytometry; type: cell-based, human; details: H1975, release from double thymidine block
# Protocol: To evaluate the effects of compound Ion a single round of DNA replication in a cell cycle, H1975 cells were synchronized using a double thymidine block followed by release with DMSO or compound 1-containing medium for 2 to 14 hours. Exemplary results are shown in Panel (C) of FIG. 2. H1975 cells were grown to 60-70% confluence. Then, 2 mM thymidine (Sigma) was added to the cells and incubated for 17 hours. The cells were then washed, and fresh serum-containing medium was added. After 10 hours, thymidine was added again, and the cells were incubated for 17 hours; the cells were then washed with PBS, replaced with fresh serum-containing medium, and the data were collected at the indicated time points. Through flow cytometry analysis, the control cells were observed as synchronized in the G0-G1 phase from 0 hours, increased in the S phase from 4 to 6 hours, and finally progressed to the G2 phase after 8 hours. However, many of the compound 1-treated cells remained in the S phase at all time points. (Panel (C) of FIG. 2). A double thymidine block was performed and the data were collected at the indicated time points. Compared to DMSO, compound 1-treated H1975 cells required more time for the S phase (approximately 4 hours).
# [3] = test system: Staphylococcus aureus (MSSA, MRSA); assay: Disc diffusion method, inhibition zones; type: cell-based; details: for zone of inhibition at 5 µg/disc: Staphylococcus aureus, 5 μg
# Staphylococcus aureus = assay: MIC, broth micro dilution method; type: cell-based
compound,measurement,setting,value
"Cc1oc2c(c1C(=O)NCCCn1ccnc1)C(=O)c1ccccc1C2=O [Compound 1, N-(3-(1H-Imidazol-1-yl)propyl)-2-methyl-4,9-dioxo-4,9-dihydronaphtho [2,3-b]furan-3-carboxamide]",percentages of BrdU-positive cells vs DMSO control,H1975 cells [1],lower than those in the DMSO control group
same,more time required for the S phase compared to DMSO,H1975 cells [2],approximately 4 hours
same,antimicrobial activity against all the MRSA strains,"[3]; 5 μg concentration, disc diffusion",showed antimicrobial activity
same,antibacterial activity against MRSA as compared to ciprofloxacin,[3]; MRSA,stronger antibacterial activity
same,zone of inhibition at 5 µg/disc,"[3]; disc diffusion, read-out: average diameter of the inhibition zone",25.5 mm
same,zone of inhibition at 5 µg/disc,"[3]; strain MRSA14979, read-out: Inhibition zone (mm)",25 mm
same,zone of inhibition at 5 µg/disc,"[3]; strain MRSA15211, read-out: Inhibition zone (mm)",26 mm
same,zone of inhibition at 5 µg/disc,"[3]; strain NTUH-104-2, MRSA (SCCmec VT, ST45), read-out: Inhibition zone (mm)",24 mm
same,zone of inhibition at 5 µg/disc,"[3]; strain NTUH-2102, MRSA (SCCmec II, ST5, FA-S), read-out: Inhibition zone (mm)",26 mm
same,zone of inhibition at 5 µg/disc,"[3]; strain NTUH-4578, MRSA (SCCmec IV, ST59), read-out: Inhibition zone (mm)",27 mm
same,zone of inhibition at 5 µg/disc,"[3]; strain NTUH-9383, MRSA (SCCmec III, ST239, FA-R), read-out: Inhibition zone (mm)",29 mm
same,zone of inhibition at 5 µg/disc,"[3]; strain PM1, MRSA (SCCmec VT, ST59), read-out: Inhibition zone (mm)",25 mm
same,zone of inhibition at 5 µg/disc,"[3]; strain SA10451, read-out: Inhibition zone (mm)",24 mm
same,zone of inhibition at 5 µg/disc,"[3]; strain SA10780, read-out: Inhibition zone (mm)",25 mm
same,zone of inhibition at 5 µg/disc,"[3]; strain SAI 1863, read-out: Inhibition zone (mm)",25 mm
same,zone of inhibition at 5 µg/disc,"[3]; ATCC 25923 / MRSA / MSSA, strain ATCC25923, MSSA, read-out: Inhibition zone (mm)",26 mm
same,MIC,"Staphylococcus aureus; ATCC 2921 / MSSA, read-out: MIC (μg/ml) 100%, strain ATCC2921 3, MSSA",4 µg/mL
same,MIC,"Staphylococcus aureus; ATCC 2921 / MSSA, strain ATCC2921 3, MSSA, read-out: MIC (μg/ml) 50%",1 µg/mL
same,MIC,"Staphylococcus aureus; ATCC 12598 / MSSA, read-out: MIC (μg/ml) 100%, strain ATCC12598, MSSA",4 µg/mL
same,MIC,"Staphylococcus aureus; ATCC 12598 / MSSA, strain ATCC12598, MSSA, read-out: MIC (μg/ml) 50%",0.5 µg/mL
same,MIC,"Staphylococcus aureus; ATCC 25923 / MSSA, read-out: MIC (μg/ml) 100%, strain ATCC25923, MSSA",4 µg/mL
same,MIC,"Staphylococcus aureus; ATCC 25923 / MSSA, strain ATCC25923, MSSA, read-out: MIC (μg/ml) 50%",2 µg/mL
same,MIC,"Staphylococcus aureus; ATCC 33592 / MRSA, read-out: MIC (μg/ml) 100%, strain ATCC33592, MRSA (SCCmec III)",1 µg/mL
same,MIC,"Staphylococcus aureus; ATCC 33592 / MRSA, strain ATCC33592, MRSA (SCCmec III), read-out: MIC (μg/ml) 50%",0.5 µg/mL
same,MIC,"Staphylococcus aureus; ATCC 49476 / MRSA, read-out: MIC (μg/ml) 100%, strain ATCC49476, MRSA (SCCmec III)",1 µg/mL
same,MIC,"Staphylococcus aureus; ATCC 49476 / MRSA, strain ATCC49476, MRSA (SCCmec III), read-out: MIC (μg/ml) 50%",0.5 µg/mL
same,MIC,"Staphylococcus aureus; MRSA, range over MRSA strains, broth micro dilution, read-out: MIC",1 to 4 µg/mL
same,MIC,"Staphylococcus aureus; MRSA, read-out: MIC (μg/ml) 100%, strain NTUH-1-2868, MRSA (SCCmec III, ST239, FA-R), clinical isolate",1 µg/mL
same,MIC,"Staphylococcus aureus; MRSA, read-out: MIC (μg/ml) 100%, strain NTUH-104-2, MRSA (SCCmec VT, ST45), clinical isolate",1 µg/mL
same,MIC,"Staphylococcus aureus; MRSA, read-out: MIC (μg/ml) 100%, strain NTUH-406-2, MRSA (SCCmec IV, spa type t008), clinical isolate",4 µg/mL
same,MIC,"Staphylococcus aureus; MRSA, read-out: MIC (μg/ml) 100%, strain NTUH-560, MRSA (SCCmec II, GM-S), clinical isolate",4 µg/mL
same,MIC,"Staphylococcus aureus; MRSA, read-out: MIC (μg/ml) 100%, strain NTUH-2102, MRSA (SCCmec II, ST5, FA-S), clinical isolate",4 µg/mL
